Our source for the IC50 values is US9040530B2, “1,2,4-triazine-6-carboxamide kinase inhibitors” (Portola Pharmaceuticals, Inc., priority 2012, dated 2015).

What is called IC50 is the concentration needed to halve the response being measured.

The target in the experiment is T1, full length active recombinant SYK enzyme (Homo sapiens, UniProt P43405).
T1 construct: full length active recombinant SYK enzyme (Millipore, Calif.); purchased Millipore
Briefly: Inhibition of Syk tyrosine phosphorylation activity (LANCE TR-FRET kinase assay). As to conditions: 1 nM active SYK enzyme, 550 nM SYK-substrate, 100 μM ATP, 1 hour at room temperature. In kind it is biochemical. As to the method:
The in vitro and in vivo human Syk activities of the inventive compounds can be determined by various procedures known in the art, such as a test for their ability to inhibit the activity of human plasma Syk.
Inhibition of Syk Tyrosine Phosphorylation Activity
SYK tyrosine phosphorylation activity is measured using the LANCE™ Technology developed by Perkin Elmer Life and Analytical Sciences (Boston, Mass.). LANCE™ refers to homogeneous time resolved fluorometry applications using techniques such as time-resolved fluorescence resonance energy transfer assay (TR-FRET) (see generally for procedures in Perkin Elmer Application Note—How to Optimize a Tyrosine Kinase Assay Using Time Resolved Fluorescence-Based LANCE Detection, wwww.perkinelmer.com/lifesciences). The assay principle involves detection of a phosphorylated substrate using energy transfer from a phosphospecific europium-labeled antibody to streptavidin-allophycocyanin as an acceptor.
Molecules are reconstituted in 30% DMSO and serially diluted 1:3 with the final dilution containing DMSO in the absence of the candidate molecule. The final DMSO concentration in the assay is 3%. Kinase assays are performed as a two part reaction. […] The second reaction involves termination of the kinase reaction and the simultaneous addition of the detection reagents-europium-labeled anti-phosphotyrosine reagent (Eu-W1024-PY100, Perkin Elmer, Boston, Mass.) and Streptavidin-Allophycocyanin detection reagent (SA-APC, Prozyme, CA). The kinase reaction is performed in a black U-bottom 96-well microtitre plate. […] The reaction is allowed to proceed for 1 hour at room temperature. The quench buffer contains 100 mM Tris pH 7.5, 300 mM […], 20 mM EDTA, 0.02% Brij35, and 0.5% BSA. The detection reagents are added to the reaction mixture at the following dilutions-1:500 for Eu-W1024-PY100 and 1:250 for SA-APC. The kinase reaction is terminated by the addition of 50 μL quench buffer containing the detection reagents. The detection is allowed to proceed for 1 hr at room temperature. Detection of the phosphorlated substrate in the absence and presence of inhibitors is measured in the TR-FRET instrument, Analyst HT (Molecular Probes, Sunnyvale, Calif.) and the condition for measurements are set up using CriterionHost Release 2.0 (Molecular Probes, Sunnyvale, Calif.). […] IC50s were derived by non-linear regression analysis.
Turning to `Cn1cc(C#N)c2ccc(Nc3nc(N[C@H](CC(F)F)C(N)=O)nnc3C(N)=O)cc21` [Example 147, (R)-3-((1-amino-4,4-difluoro-1-oxobutan-2-yl)amino)-5-((3-cyano-1-methyl-1H-indol-6-yl)amino)-1,2,4-triazine-6-carboxamide], the IC50 was 1 to 10 nM.
The result for `COc1ccc(Nc2nc(N[C@@H]3CCCC[C@@H]3N)nnc2C(N)=O)cc1Cl` [Example 125, 3-(((1R,2S)-2-aminocyclohexyl)amino)-5-((3-chloro-4-methoxyphenyl)amino)-1,2,4-triazine-6-carboxamide] reads 1 to 10 nM.
The result for `NC(=O)c1nnc(N[C@@H]2CCCC[C@@H]2N)nc1Nc1ccc(C(F)(F)F)cc1` [Example 168, 3-(((1R,2S)-2-aminocyclohexyl)amino)-5-((4-(trifluoromethyl)phenyl)amino)-1,2,4-triazine-6-carboxamide] reads 10 to 100 nM; that for `NC(=O)c1nnc(N[C@@H]2CCOC[C@@H]2N)nc1Nc1cccc(-n2nccn2)c1` [Example 85, 5-((3-(2H-1,2,3-triazol-2-yl)phenyl)amino)-3-(((3R,4R)-3-aminotetrahydro-2H-pyran-4-yl)amino)-1,2,4-triazine-6-carboxamide], 1 to 10 nM.
Turning to `NC(=O)c1nnc(N[C@@H]2CCCC[C@@H]2N)nc1Nc1cnc2ncccc2c1` [Example 45, 5-((1,8-naphthyridin-3-yl)amino)-3-(((1R,2S)-2-aminocyclohexyl)amino)-1,2,4-triazine-6-carboxamide], the IC50 lay in the range of 10 to 100 nM.
As to `NC(=O)c1nnc(N[C@@H]2CCCC[C@@H]2N)nc1Nc1ccc(N2CCOCC2)c(F)c1` [Example 30, 3-(((1R,2S)-2-aminocyclohexyl)amino)-5-((3-fluoro-4-morpholinophenyl)amino)-1,2,4-triazine-6-carboxamide], the IC50 lay in the range of 1 to 10 nM.
For the compound `CC[C@@H](Nc1nnc(C(N)=O)c(Nc2cccc(C#N)c2)n1)C(N)=O` [Example 73, (R)-3-((1-amino-1-oxobutan-2-yl)amino)-5-((3-cyanophenyl)amino)-1,2,4-triazine-6-carboxamide], the IC50 was 100 to 1000 nM.
The result for `Cc1ccc(Nc2nc(N[C@@H]3CCCC(F)(F)[C@@H]3N)nnc2C(N)=O)cc1C#N` [Example 233, 3-(((1R,2R)-2-amino-3,3-difluorocyclohexyl)amino)-5-((3-cyano-4-methylphenyl)amino)-1,2,4-triazine-6-carboxamide] reads 100 to 1000 nM.
The result for `Cn1ccc2ccc(Nc3nc(N[C@@H]4CCOC[C@@H]4N)nnc3C(N)=O)cc21` [Example 165, 3-(((3R,4R)-3-aminotetrahydro-2H-pyran-4-yl)amino)-5-((1-methyl-1H-indol-6-yl)amino)-1,2,4-triazine-6-carboxamide] reads 1 to 10 nM.
The result for `CC[C@@H](Nc1nnc(C(N)=O)c(Nc2ccc3cc[nH]c3c2)n1)C(N)=O` [Example 102, (R)-5-((1H-indol-6-yl)amino)-3-((1-amino-1-oxobutan-2-yl)amino)-1,2,4-triazine-6-carboxamide] reads 1 to 10 nM; that for `N#Cc1cccc(Nc2nc(N[C@@H]3CCCC[C@@H]3N)nnc2C(N)=O)c1` [Example 72, 3-(((1R,2S)-2-aminocyclohexyl)amino)-5-((3-cyanophenyl)amino)-1,2,4-triazine-6-carboxamide], 1 to 10 nM.
In the case of `CN(C)C(=O)c1ccc(Nc2nc(N[C@@H]3CCCC[C@@H]3N)nnc2C(N)=O)cn1` [Example 65, 3-(((1R,2S)-2-aminocyclohexyl)amino)-5-((6-(dimethylcarbamoyl)pyridin-3-yl)amino)-1,2,4-triazine-6-carboxamide], the IC50 is more than 1000 nM.
Turning to `C[C@@H](Nc1nnc(C(N)=O)c(Nc2ccc3ccn(C)c3c2)n1)C(N)=O` [Example 164, (R)-3-((1-amino-1-oxopropan-2-yl)amino)-5-((1-methyl-1H-indol-6-yl)amino)-1,2,4-triazine-6-carboxamide], the IC50 fell in the range of 10 to 100 nM.
Next, `Cc1ccc(Nc2nc(N[C@@H]3CCCC[C@@H]3N)nnc2C(N)=O)cc1C` [Example 207, 3-(((1R,2S)-2-aminocyclohexyl)amino)-5-((3,4-dimethylphenyl)amino)-1,2,4-triazine-6-carboxamide]: 1 to 10 nM.
Next, `C[N+]1([O-])CCC(c2ccc(Nc3nc(N[C@@H]4CCCC[C@@H]4N)nnc3C(N)=O)cc2)CC1` (stereo partly drawn) [Example 29, 4-(4-((3-(((1R,2S)-2-aminocyclohexyl)amino)-6-carbamoyl-1,2,4-triazin-5-yl)amino)phenyl)-1-methylpiperidine 1-oxide]: 10 to 100 nM; `Cc1ccc(Nc2nc(N[C@H](Cc3ccc(F)cc3)C(N)=O)nnc2C(N)=O)cc1` [Example 189, (R)-3-(1-amino-3-(4-fluorophenyl)-1-oxopropan-2-ylamino)-5-(p-tolylamino)-1,2,4-triazine-6-carboxamide]: 10 to 100 nM; `NC(=O)c1nnc(N[C@@H]2CCNC2)nc1Nc1ccc2ncccc2c1` [Example 57, (R)-3-(pyrrolidin-3-ylamino)-5-(quinolin-6-ylamino)-1,2,4-triazine-6-carboxamide]: 1 to 10 nM.
Next, `NC(=O)c1nnc(N[C@@H]2CCCC(F)(F)[C@@H]2N)nc1Nc1ccccc1` [Example 96, 3-(((1R,2R)-2-amino-3,3-difluorocyclohexyl)amino)-5-(phenylamino)-1,2,4-triazine-6-carboxamide]: 10 to 100 nM.
Consider `CC[C@@H](Nc1nnc(C(N)=O)c(Nc2ccc(Cl)c(C)c2)n1)C(N)=O` [Example 221, (R)-3-((1-amino-1-oxobutan-2-yl)amino)-5-((4-chloro-3-methylphenyl)amino)-1,2,4-triazine-6-carboxamide], for which the half-inhibitory concentration (IC50) was 10 to 100 nM.
The result for `Cn1ccc2c(Nc3nc(N[C@@H]4CCCC[C@@H]4N)nnc3C(N)=O)cccc21` [Example 81, 3-(((1R,2S)-2-aminocyclohexyl)amino)-5-((1-methyl-1H-indol-4-yl)amino)-1,2,4-triazine-6-carboxamide] reads 1 to 10 nM; that for `NC(=O)c1nnc(N[C@@H]2CCOC[C@@H]2N)nc1Nc1ccc(Cl)cc1` [Example 243, 3-(((3R,4R)-3-aminotetrahydro-2H-pyran-4-yl)amino)-5-((4-chlorophenyl)amino)-1,2,4-triazine-6-carboxamide], 10 to 100 nM.
Next, `NC(=O)c1nnc(N[C@@H]2CCCC[C@@H]2N)nc1Nc1cccc(-c2ncco2)c1` [Example 7, 3-(((1R,2S)-2-aminocyclohexyl)amino)-5-((3-(oxazol-2-yl)phenyl)amino)-1,2,4-triazine-6-carboxamide]: 1 to 10 nM.
The result for `Cn1ccc2c(Nc3nc(N[C@@H]4CCCC(F)(F)[C@@H]4N)nnc3C(N)=O)cccc21` [Example 94, 3-(((1R,2R)-2-amino-3,3-difluorocyclohexyl)amino)-5-((1-methyl-1H-indol-4-yl)amino)-1,2,4-triazine-6-carboxamide] reads 1 to 10 nM; that for `NC(=O)c1nnc(N[C@@H]2CCCC[C@@H]2N)nc1Nc1ccc([N+]2([O-])CCCCC2)c(F)c1` [Example 32, 1-(4-((3-(((1R,2S)-2-aminocyclohexyl)amino)-6-carbamoyl-1,2,4-triazin-5-yl)amino)-2-fluorophenyl)piperidine 1-oxide], 10 to 100 nM.
Consider `NC(=O)c1nnc(N[C@@H]2CCCC[C@@H]2N)nc1Nc1cccc(-n2cncn2)c1` [Example 5, 5-((3-(1H-1,2,4-triazol-1-yl)phenyl)amino)-3-(((1R,2S)-2-aminocyclohexyl)amino)-1,2,4-triazine-6-carboxamide], for which the IC50 is 1 to 10 nM.
Next, `Cc1cc(F)cc(Nc2nc(N[C@@H]3CCCC(F)(F)[C@@H]3N)nnc2C(N)=O)c1` [Example 202, 3-(((1R,2R)-2-amino-3,3-difluorocyclohexyl)amino)-5-((3-fluoro-5-methylphenyl)amino)-1,2,4-triazine-6-carboxamide]: 10 to 100 nM; `NC(=O)c1nnc(N[C@@H]2CCOC[C@@H]2N)nc1Nc1ccc2c(c1)CCC2` [Example 223, 3-(((3R,4R)-3-aminotetrahydro-2H-pyran-4-yl)amino)-5-((2,3-dihydro-1H-inden-5-yl)amino)-1,2,4-triazine-6-carboxamide]: 1 to 10 nM.
The result for `Cn1ccc2c(Nc3nc(N[C@@H](C(N)=O)C(C)(C)C)nnc3C(N)=O)cccc21` [Example 93, (R)-3-((1-amino-3,3-dimethyl-1-oxobutan-2-yl)amino)-5-((1-methyl-1H-indol-4-yl)amino)-1,2,4-triazine-6-carboxamide] reads 100 to 1000 nM.
